Columns and labels:
[1] = system: patients diagnosed with primary open angle glaucoma; assay: Trial 2: intraocular pressure reduction (Goldmann applanation tonometry), AcuStream versus standard eye dropper; assay type: in vivo, human
Protocol: Trial 2 compared the efficacy (dose volume equivalence) of 0.005% w/v latanoprost for intraocular pressure reduction when delivered via AcuStream™ (pre-trial calibration volume=9.2 μl) versus the standard eye dropper for topical drug delivery (approximate volume=30 μl).
Patients included in Trial 2 have previously been diagnosed with primary open angle glaucoma on the basis of intraocular pressure and visual field testing, fundus examination or optical coherence tomography (OCT) data and are currently on prostaglandin analog medical therapy. Patients with corneal abnormalities that would interfere with accurate IOP measurements with applanation tonometry, use of an oral or topical ophthalmic steroids within the past 14 days from screening date, any active ocular surface or anterior segment disease, or progressive field loss during the past year were excluded from the study. Thirteen men and five women participated in the trial. […]
After performing slit lamp examinations on each patient to verify eligibility and obtaining informed consent, intraocular pressure (IOP) was measured by a sole experienced examiner who was blind to the randomized conditions. […]
Latanoprost solution was administered by a sole ophthalmologist to both eyes of each patient, based on the pre-determined randomized condition.

eye of subjects = assay: Presbyopia: pupil diameter after self-administered pilocarpine micro-dose; assay type: in vivo, human
Protocol: A 10 μl micro-dose of a 1% pilocarpine solution was self-administered using an electromagnetic actuated fluid delivery device, e.g., as described above, by three subjects to their own eye. The age range of the subjects was 52 years to 68 years, and all subjects were male. The pilocarpine micro-dose was self-administered by the subjects.
Baseline, pre-dose values of pupil diameter and near visual acuity in both eyes prior to dosing was measured for all subjects, and then following the baseline measurements, the subjects were dosed in only one eye (the eye with the poorer visual acuity) with the micro-dose pilocarpine solution. Approximately 45 to 60 minutes after dosing, pupil diameter and near visual acuity were again tested. Near visual acuity was measured using a Snellen card at a distance of 40 cm. A tabulation of results is given below in Table A.

| Compound | difference in IOP reduction between AcuStream and standard dropper groups ([1]; Wilcoxon Ranked Sum test, p=0.3447) | post-instillation IOP of a single patient outlier (OD) ([1]; control group (standard eye dropper), baseline IOP 30 mm Hg) [mm Hg] | mean reduction in pupil diameter (eye of subjects; dosed eye, 10 μl micro-dose of 1% solution, all 3 subjects) [mm] | miotic effect in the non-dosed eye (eye of subjects; non-dosed contralateral eye) |
| --- | --- | --- | --- | --- |
| CC(C)OC(=O)CCC/C=C\C[C@@H]1[C@@H](CC[C@@H](O)CCc2ccccc2)[C@H](O)C[C@@H]1O [latanoprost] | no statistically significant differences | 17 | – | – |
| CC[C@@H]1C(=O)OC[C@@H]1Cc1cncn1C [pilocarpine] | – | – | 0.70 | no miotic effect |
